Laboratory results as given in patent US20260272797A1, “FRAGRANCE COMPOSITION” (GIVAUDAN SA, priority 2023, published 2026).

How the values were obtained:
[1] = Gas-phase evaluation of each fragrance ingredient alone against model scalp malodour, MiniVAS device, panel of 5 experts; conditions: for Scalp MOC of ingredient alone: expert description
Protocol: In a first set of experiments, the scalp malodour counteractancy of 173 fragrance ingredients was evaluated by panel of 5 experts.
The evaluation was performed in the gas phase, using a MiniVAS™ device (ex Givaudan SA). This device is a regulating means that comprises a plurality of channels adapted to convey a gas (more particularly air) through cartridges, each cartridge containing a fragrance ingredient adsorbed onto an adsorbent. The air flows coming from the different cartridges are admixed and conveyed to the user's nose through a tubing fitted with an olfactometer funnel. Thus, by opening and closing channels and maintaining these opened and closed, respectively, for predetermined times, the regulating means can determine which fragrance ingredients and how much thereof are conveyed and when, and thus alter the nature of the fragrance perceived by the user. A description of the device can be found in WO2014154909A1, page 2, line 11 to page 4, line 7, and in H. R. Gygax et al. “Evolution of Real Time Aroma Creation at Givaudan”, poster presented at the 12th Weurman Flavour Research Symposium. July 2008. Interlaken, Switzerland; DOI: 10.13140/2.1.1924.0641.
For the sake of the present evaluation, one cartridge contained the scalp malodour (in the form of a model malodour) and each fragrance ingredient was assigned to another cartridge. The malodour counteractancy of each fragrance ingredient was evaluated separately against the scalp malodour. A constant air flow rate of 50 ml/min was used for all measurements. The perceived malodour intensity, as well as the fragrance intensity, were ranked on a scale of 1-5 (1=barely noticeable, 2=weak, 3=medium, 4=strong and 5=very strong).

[2] = Impact of fragrance ingredients on scalp malodour counteractancy of 80 fragrance compositions (Example 2 protocol, statistical presence); conditions: series of 80 fragrance compositions
Protocol: In a second set of experiments, the impact of these fragrance ingredients on the scalp malodour counteractancy of a fragrance composition was assessed. The scalp malodour counteractancy of a series of 80 fragrance compositions was assessed by performing the evaluation protocol described in Example 2. […] Ingredients that were statistically more present in fragrances having a high malodour counteractancy were assigned a positive status, whereas ingredients that were statistically more present in compositions having a low malodour counteractancy were assigned a negative status.

[3] = Table 4, air flow 50 ml/min, scale of 1-5
[4] = Table 3, air flow 50 ml/min, scale of 1-5 (1=barely noticeable, 5=very strong)

| Compound | MO intensity [1, 3] | Scalp MOC of ingredient alone ([1]; Table 4, gas phase) | Impact on scalp MOC of fragrance composition ([2]; Table 4) | MO intensity [1, 4] | Scalp MOC of ingredient alone ([1]; Table 3, gas phase) | Impact on scalp MOC of fragrance composition ([2]; Table 3) |
| --- | --- | --- | --- | --- | --- | --- |
| CCCCCCCCCCC=O [undecanal] | 1 | Enhances MO | Negative | – | – | – |
| CC(CCO)CCCC(C)(C)O (stereo not shown) [3,7-dimethyloctane-1,7-diol] | – | – | – | 1 | No effect | Positive |
| CCCCC1COCC(C)C1OC(C)=O (stereo not shown) [3-butyl-5-methyltetrahydro-2H-pyran-4-yl acetate] | 1 | – | Negative | – | – | – |
| CCC(=O)/C=C/C1C(C)=CCCC1(C)C (stereo not shown) [(E)-1-(2,6,6-trimethylcyclohex-2-en-1-yl)pent-1-en-3-one] | – | – | – | 3 | – | Positive |
| C/C=C/C(=O)C1=C(C)CCCC1(C)C [(E)-1-(2,6,6-trimethyl-1-cyclohexenyl)but-2-en-1-one] | – | – | – | 2.8 | Coverage | Positive |
| CC1CCC2(CCC(=O)O2)CC1 (stereo not shown) [8-methyl-1-oxaspiro[4.5]decan-2-one] | – | – | – | 2.7 | – | Positive |
| C/C=C/c1ccc(OC)cc1 [(E)-1-methoxy-4-(prop-1-en-1-yl)benzene] | – | – | – | 4 | – | Positive |
| CC1(CO)CC1CC1CC2CC2(C)C1(C)C (stereo not shown) [1-methyl-2-((1,2,2-trimethylbicyclo[3.1.0]hexan-3-yl)methyl)cyclopropyl)methanol] | – | – | – | 3.3 | – | Positive |
| CC1(C)[C@H]2CC[C@]1(C)C(=O)C2 [(1S,4S)-1,7,7-trimethylbicyclo[2.2.1]heptan-2-one] | – | – | – | 4.5 | – | Positive |
| CCC(O)COC1CCCCC1C(C)(C)C (stereo not shown) [1-((2-(tert-butyl)cyclohexyl)oxy)butan-2-ol] | – | – | – | 2.3 | Coverage | Positive |
| C/C=C/c1ccc(O)c(OC)c1 [(E)-2-methoxy-4-(prop-1-en-1-yl)phenol] | – | – | – | 4.5 | – | Positive |
| CC(=O)/C(C)=C/C1=C(C)CCCC1(C)C [(E)-3-methyl-4-(2,6,6-trimethylcyclohex-1-en-1-yl)but-3-en-2-one] | – | – | – | 3 | – | Positive |
| COc1cc(C=O)ccc1OC(=O)C(C)C [4-formyl-2-methoxyphenyl 2-methylpropanoate] | – | – | – | 1.5 | – | Positive |
| C/C=C/C(=O)/C(C)=C(\C)C(C)C [(2E,5E)-5,6,7-trimethylocta-2,5-dien-4-one] | – | – | – | 1.5 | – | Positive |
| CC(=O)C1=C(C)C2C[C@@]3(C1)C(CC[C@@H]3C)C2(C)C (stereo partly drawn) [1-((1S,8aS)-1,4,4,6-tetramethyl-2,3,3a,4,5,8-hexahydro-1H-5,8a-methanoazulen-7-yl)ethanone] | 1 | – | Negative | – | – | – |
| C=C(C)[C@@H]1CC=C(C)C(=O)C1 [(5R)-2-methyl-5-prop-1-en-2-ylcyclohex-2-en-1-one] | 0 | Enhances MO | Negative | – | – | – |
| CC(C)=CCC(C)C1CC1(C)CO (stereo not shown) [1-methyl-2-(5-methylhex-4-en-2-yl)cyclopropylmethanol] | – | – | – | 2.7 | – | Positive |
| CC(C)=CCCC(C)CCO (stereo not shown) [3,7-dimethyloct-6-en-1-ol] | – | – | – | 2.5 | – | Positive |
| Cc1ncsc1CCO [2-(4-Methyl-1,3-thiazol-5-yl)ethanoL] | – | – | – | 1 | No effect | Positive |

| Compound | MO intensity [1, 3] | Scalp MOC of ingredient alone ([1]; Table 4, gas phase) | Impact on scalp MOC of fragrance composition ([2]; Table 4) | MO intensity [1, 4] | Scalp MOC of ingredient alone ([1]; Table 3, gas phase) | Impact on scalp MOC of fragrance composition ([2]; Table 3) |
| --- | --- | --- | --- | --- | --- | --- |
| CC(=O)OC1CCCCC1C(C)(C)C (stereo not shown) [2-(tert-butyl)cyclohexyl acetate] | – | – | – | 2 | – | Positive |
| CC(=O)c1ccc2ccccc2c1 [1-(2-naphtalenyl)-ethanone] | 1 | – | Negative | – | – | – |
| CC(C)CCCC(C)CCO (stereo not shown) [3,7-dimethyloctan-1-ol] | – | – | – | 4.3 | – | Positive |
| CCCc1ccc(O)c(OC)c1 [2-methoxy-4-propylphenol] | – | – | – | 2 | – | Positive |
| CCCCCC1(C)CCC(C)(C)C1=O (stereo not shown) [2,2,5-trimethyl-5-pentylcyclopentanone] | – | – | – | 3.5 | – | Positive |
| CCOC(=O)C1=C(C)C=CCC1(C)C [ethyl 2,6,6-trimethylcyclohexa-1,3-diene-1-carboxylate] | 1 | – | Negative | – | – | – |
| CCC(=O)OCc1ccccc1 [benzyl propanoate] | 1 | – | Negative | – | – | – |
| CCOC(=O)C1OC1(C)c1ccccc1 (stereo not shown) [ethyl methyl phenyl glycidate] | 1 | – | Negative | – | – | – |
| CC(=O)O[C@H]1CC2CC1[C@H]1CC=C[C@@H]21 (stereo partly drawn) [(3aR,6S,7aS)-3a,4,5,6,7,7a-hexahydro-1H-4,7-methanoinden-6-yl acetate] | 3.8 | – | Negative | – | – | – |
| C/C(=C\C(C)C)C(C)OC(C)(C)COC(=O)C1CC1 (stereo not shown) [(E)-2-((3,5-dimethylhex-3-en-2-yl)oxy)-2-methylpropyl cyclopropanecarboxylate] | 1 | – | Negative | – | – | – |
| CC(=O)O[C@]1(C)CC[C@]23CC1C(C)(C)C2CC[C@@H]3C (stereo partly drawn) [(1S,6R,8aR)-1,4,4,6-tetramethyloctahydro-1H-5,8a-methanoazulen-6-yl acetate] | – | – | – | 1 | No effect | Positive |
| C=CCCC(=O)/C=C/C1C(C)=CCCC1(C)C (stereo not shown) [(E)-1-(2,6,6-trimethylcyclohex-2-en-1-yl)hepta-1,6-dien-3-one] | 3 | Good coverage | Negative | – | – | – |
| c1ccc2[nH]ccc2c1 [1H-indole] | – | – | – | 4 | – | Positive |
| CCC(C)(CCCC(C)C=O)OC (stereo not shown) [6-methoxy-2,6-dimethyloctanal] | – | – | – | 3 | – | Positive |
| CC(CC=O)CCCC(C)(C)O (stereo not shown) [7-hydroxy-3,7-dimethyloctanal] | – | – | – | 2 | – | Positive |
| CCCCCCCC(=O)OCC [ethyl octanoate] | – | – | – | 1 | No effect | Positive |
| CCC(=O)C(C)CC=C(C)C (stereo not shown) [4,7-dimethyloct-6-en-3-one] | 4 | – | Negative | – | – | – |
| CCCCCCC1C(=O)CCC1C(=O)OC (stereo not shown) [methyl 2-hexyl-3-oxocyclopentane-1-carboxylate] | 1 | – | Negative | – | – | – |
| CC(C=O)Cc1ccc(C(C)(C)C)cc1 (stereo not shown) [3-(4-(tert-butyl)phenyl)-2-methylpropanal] | – | – | – | 2.8 | – | Positive |
